Reference: patent US20250092044A1, “Kinase Inhibitors” (Incyte Corporation, priority 2023, published 2025)

How the values were obtained:
[1] = system: FLT3; test: FLT3 Enzymatic Assay; assay type: biochemical
Procedure, shortened: (§1)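 Room-temperature HTRF kinase assay (665/620 nm ratio) with 0.011 nM FLT3, 1 mM ATP, 500 nM biotinylated TK substrate in HEPES pH 7.0 buffer with MgCl2 and DTT; 0.5% DMSO final. Read after 60 min incubation; IC50 fitted from percent control activity versus log concentration, no-ATP wells as negative control.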

[2] = target: FLT3 (Homo sapiens (Human), UniProt P36888); test: FLT3 Enzymatic Assay; assay type: biochemical; conditions: 1 mM ATP
Chain of FLT3 (Homo sapiens (Human), UniProt P36888) (P36888 27-993, species assumed): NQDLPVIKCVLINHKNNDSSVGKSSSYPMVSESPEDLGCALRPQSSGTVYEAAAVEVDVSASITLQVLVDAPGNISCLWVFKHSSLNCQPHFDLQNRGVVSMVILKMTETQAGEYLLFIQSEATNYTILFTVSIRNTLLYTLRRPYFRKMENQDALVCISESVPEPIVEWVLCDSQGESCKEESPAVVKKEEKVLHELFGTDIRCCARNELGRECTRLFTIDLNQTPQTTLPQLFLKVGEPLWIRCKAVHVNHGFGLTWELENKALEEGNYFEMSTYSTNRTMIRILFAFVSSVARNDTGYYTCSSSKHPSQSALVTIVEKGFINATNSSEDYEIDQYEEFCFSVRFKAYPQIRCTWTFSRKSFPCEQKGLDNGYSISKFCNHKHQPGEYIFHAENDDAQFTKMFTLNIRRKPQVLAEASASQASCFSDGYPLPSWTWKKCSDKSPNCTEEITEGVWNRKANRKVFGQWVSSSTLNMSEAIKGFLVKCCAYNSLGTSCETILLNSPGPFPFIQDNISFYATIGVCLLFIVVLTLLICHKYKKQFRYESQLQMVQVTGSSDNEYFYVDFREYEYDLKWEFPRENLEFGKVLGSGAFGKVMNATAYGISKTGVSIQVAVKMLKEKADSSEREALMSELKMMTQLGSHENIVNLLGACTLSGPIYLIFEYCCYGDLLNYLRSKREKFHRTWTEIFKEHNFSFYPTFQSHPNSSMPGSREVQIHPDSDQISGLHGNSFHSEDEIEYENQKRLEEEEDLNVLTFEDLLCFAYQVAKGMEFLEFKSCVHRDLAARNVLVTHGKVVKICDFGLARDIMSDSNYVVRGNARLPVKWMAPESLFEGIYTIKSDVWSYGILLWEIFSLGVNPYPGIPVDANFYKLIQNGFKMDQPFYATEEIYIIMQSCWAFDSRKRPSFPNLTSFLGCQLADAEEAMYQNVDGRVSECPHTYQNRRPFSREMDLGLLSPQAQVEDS
Procedure, shortened: as §1

[3] = system: pSTAT5 in SET-2 cells in whole blood; test: pSTAT5 SET-2 Whole Blood MSD Assay; assay type: cell-based; conditions: Homo sapiens, 2 hour incubation, read-out: SET2 WB IC50
Description: SET-2 cells shipped from ABS, RPMI1640 medium, Fetal Bovine Serum from Gibco, Phospho-STAT5a,b Whole Cell Lysate Kit from Mesoscale, Retronectin (Recombinant Human Fibronectin Fragment) from TaKaRa, 96 well cell culture plate flat bottom from Corning, lysis buffer from Cell Signaling Technology, and sterile PBS from Gibco. Whole Blood from by BioIVT.
SET-2 cells were cultured in RPMI media with 20% FBS at 37° C. humidified incubator supplied with 5% CO2. On the day of the assay, 40 uL per well of diluted retronectin working solution was added to sterile 96-well clear flat bottom tissue culture plates (1:200 dilution of retronectin in sterile PBS) and incubated at 37 C for 1 hour. After 1 hour, the retronectin working solution was aspirated and SET-2 cells were seeded at 100,000/well in RPMI+20% FBS. Cells were incubated overnight at 37° C. and 5% CO2. The next day, the medium was removed and 40 μL of diluted compounds in serum-free RPMI and whole blood was added to the cells for a 2 hour incubation at 37° C. and 5% CO2. The compound starting concentration is 20 μM and 2.5 fold serial diluted down to 0.21 nM. The whole blood and compound mixture was then aspirated off using the BlueCat plate washer and washed 1× with PBS. Cells were lysed by adding 40 μL of 3× complete lysis buffer and shaken at room temperature for 45-60 minutes (complete lysis buffer consists of Cell Signaling Technology lysis buffer diluted to 3× and supplemented with Mesoscale's protease inhibitor, phosphatase I inhibitor, and phosphatase II inhibitor). The pSTAT5 MSD plates were blocked by adding 150 μL of Blocker A solution per well to the MSD plates and incubated at room temperature with shaking at 400 rpm for one hour or longer. After blocking, plates were washed 3× with 300 μL/well of 1× Tris Wash Buffer. After lysis, added 25 μL per well of lysed sample was added to MSD plate and incubated with shaking at 4° C. wrapped in foil overnight. The next day, plates were washed again and 25 μL/well of diluted 1× Detection Antibody Solution, wrapped in foil, and incubated at room temperature with shaking at 400 rpm for 1 hour. Plates were then washed again and lastly, 150 μL/well of 1× Read Buffer T was added to all wells. Plates were analyzed on MSD Discovery within 5 minutes. […] Data analysis was performed in GraphPad Prism using a 4-parameter fit and data was reported as Average±SD.

[4] = target: catalytic domain (JH1) of human JAK2 (Homo sapiens (Human), UniProt O60674); test: JAK2 LanthaScreen JH1 Binding Assay; conditions: read-out: JH1 Bind IC50
Chain of catalytic domain (JH1) of human JAK2 (O60674 826-1132): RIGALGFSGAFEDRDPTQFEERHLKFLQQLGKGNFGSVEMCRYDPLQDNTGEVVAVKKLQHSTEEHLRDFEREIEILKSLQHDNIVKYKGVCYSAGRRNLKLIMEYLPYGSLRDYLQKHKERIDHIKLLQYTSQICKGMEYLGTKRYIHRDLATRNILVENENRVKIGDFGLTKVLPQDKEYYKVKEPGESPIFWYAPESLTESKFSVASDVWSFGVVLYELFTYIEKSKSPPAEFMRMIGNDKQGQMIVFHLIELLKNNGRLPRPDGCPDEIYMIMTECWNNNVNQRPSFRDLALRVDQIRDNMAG
Procedure, shortened: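 FLAG-tagged biotinylated JH1 (aa 826-1132, baculovirus-expressed), 1.5 nM, with serially diluted compound, 50 nM fluorescent tracer and 0.5 nM streptavidin-Tb in pH 7.5 Tris buffer, 2 h at 25 °C; nonspecific binding with 2 mM ATP. TR-FRET read, IC50 by four-parameter fit.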

[5] = target: pseudo-kinase domain (JH2) of human V617F mutant JAK2 (Homo sapiens (Human), UniProt O60674, F794H/V617F/W659A/W777A); test: JAK2 LanthaScreen JH2-V617F Binding Assay; conditions: read-out: JH2 V617F Bind IC50
Chain of pseudo-kinase domain (JH2) of human V617F mutant JAK2 (O60674 536-812 V617F/W659A/W777A/F794H): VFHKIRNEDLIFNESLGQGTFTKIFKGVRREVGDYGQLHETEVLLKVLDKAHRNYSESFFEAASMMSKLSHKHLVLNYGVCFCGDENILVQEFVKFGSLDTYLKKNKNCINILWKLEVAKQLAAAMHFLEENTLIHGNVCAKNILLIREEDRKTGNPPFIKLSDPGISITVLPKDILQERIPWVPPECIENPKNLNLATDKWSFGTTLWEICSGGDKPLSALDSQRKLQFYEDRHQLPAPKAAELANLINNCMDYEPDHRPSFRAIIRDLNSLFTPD
Procedure, shortened: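 Biotinylated His-Avi JAK2 JH2 (aa 536-812, V617F plus W659A/W777A/F794H; 0.26 nM) incubated 1 h at 25 °C with compound, 50 nM fluorescent JH2 tracer and 0.25 nM streptavidin-Tb in Tris pH 7.5 buffer. TR-FRET tracer displacement read; nonspecific binding with 2 mM ATP; IC50 from four-parameter fit.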

Structure (SMILES)	Selectivity FLT3/JH2 V617F [1]	IC50 [2] [µM]	IC50 [3] [µM]	IC50 [4] [µM]	IC50 [5] [µM]
COC(=O)N[C@@H]1CC[C@@H](n2c(=O)n(C)c3cnc4[nH]c(-c5ccc(CN(C)C)cc5)c(-c5ccc(F)cc5)c4c32)C1 [Example 28, Methyl ((1R,3R)-3-(7-(4-((dimethylamino)methyl)phenyl)-8-(4-fluorophenyl)-3-methyl-2-oxo-3,6-dihydroimidazo[4,5-d]pyrrolo[2,3-b]pyridin-1(2H)-yl)cyclopentyl)carbamate]	** (selectivity of >500-fold to ≤1500-fold)	0.25 to 1.25	≤ 2.5	> 1	≤ 0.01
[2H]C([2H])([2H])n1c(=O)n([C@@H]2CC[C@@H](NC(=O)OC)C2)c2c3c(-c4ccc5c(c4)COC5(C)C)c(-c4ccc(C(=O)N(C)C)cc4)[nH]c3ncc21 [Example 30, methyl ((1R,3R)-3-(8-(1,1-dimethyl-1,3-dihydroisobenzofuran-5-yl)-7-(4-(dimethylcarbamoyl)phenyl)-3-(methyl-d3)-2-oxo-3,6-dihydroimidazo[4,5-d]pyrrolo[2,3-b]pyridin-1(2H)-yl)cyclopentyl)carbamate]	***** (selectivity of >5000-fold to ≤12500-fold)	0.25 to 1.25	≤ 2.5	> 1	≤ 0.01
[2H]C([2H])([2H])n1c(=O)n([C@@H]2CC[C@@H](NC(=O)OC)C2)c2c3c(-c4ccc5c(cnn5C(C)C)c4)c(-c4ccc(CN(C)C)cc4)[nH]c3ncc21 [Example 26, Methyl ((1R,3R)-3-(7-(4-((dimethylamino)methyl)phenyl)-8-(1-isopropyl-1H-indazol-5-yl)-3-(methyl-d3)-2-oxo-3,6-dihydroimidazo[4,5-d]pyrrolo[2,3-b]pyridin-1(2H)-yl)cyclopentyl)carbamate]	**** (selectivity of >1750-fold to ≤5000-fold)	0.25 to 1.25	≤ 2.5	> 1	≤ 0.01
CNC(=O)c1ccc(-c2[nH]c3ncc4c(c3c2-c2ccc3c(cnn3C(C)C)c2)n([C@@H]2CC[C@@H](NC(=O)OC)C2)c(=O)n4C)cc1F [Example 12, Methyl ((1R,3R)-3-(7-(3-fluoro-4-(methylcarbamoyl)phenyl)-8-(1-isopropyl-1H-indazol-5-yl)-3-methyl-2-oxo-3,6-dihydroimidazo[4,5-d]pyrrolo[2,3-b]pyridin-1(2H)-yl)cyclopentyl)carbamate]	****** (selectivity of >12500-fold)	> 2.5	> 7.5	> 1	≤ 0.01
COC(=O)N[C@@H]1CC[C@@H](n2c(=O)n(C)c3cnc4[nH]c(-c5ccc(C(=O)NC6(C(F)(F)F)CC6)c(F)c5)c(-c5ccc6c(cnn6C(C)C)c5)c4c32)C1 [Example 13, Methyl ((1R,3R)-3-(7-(3-fluoro-4-((1-(trifluoromethyl)cyclopropyl)carbamoyl)phenyl)-8-(1-isopropyl-1H-indazol-5-yl)-3-methyl-2-oxo-3,6-dihydroimidazo[4,5-d]pyrrolo[2,3-b]pyridin-1(2H)-yl)cyclopentyl)carbamate]	****** (selectivity of >12500-fold)	> 2.5	5 to 7.5	> 1	≤ 0.01
COC(=O)N[C@@H]1CC[C@@H](n2c(=O)n(C)c3cnc4[nH]c(-c5ccc(C(=O)NC6CC6(F)F)c(F)c5)c(-c5ccc6c(cnn6C(C)C)c5)c4c32)C1 (stereo partly drawn) [Example 9, Methyl ((1R,3R)-3-(7-(4-((2,2-difluorocyclopropyl)carbamoyl)-3-fluorophenyl)-8-(1-isopropyl-1H-indazol-5-yl)-3-methyl-2-oxo-3,6-dihydroimidazo[4,5-d]pyrrolo[2,3-b]pyridin-1(2H)-yl)cyclopentyl)carbamate]	****** (selectivity of >12500-fold)	> 2.5	5 to 7.5	> 1	≤ 0.01
CCNC(=O)c1ccc(-c2[nH]c3ncc4c(c3c2-c2ccc3c(cnn3C(C)C)c2)n([C@@H]2CC[C@@H](NC(=O)OC)C2)c(=O)n4C)cc1 [Example 23, Methyl ((1R,3R)-3-(7-(4-(ethylcarbamoyl)phenyl)-8-(1-isopropyl-1H-indazol-5-yl)-3-methyl-2-oxo-3,6-dihydroimidazo[4,5-d]pyrrolo[2,3-b]pyridin-1(2H)-yl)cyclopentyl)carbamate]	**** (selectivity of >1750-fold to ≤5000-fold)	0.25 to 1.25	2.5 to 5	> 1	≤ 0.01
COC(=O)N[C@@H]1CC[C@@H](n2c(=O)n(C)c3cnc4[nH]c(-c5ccc(C(=O)NC6CC6)c(F)c5)c(-c5ccc6c(cnn6C(C)C)c5)c4c32)C1 [Example 8, Methyl ((1R,3R)-3-(7-(4-(cyclopropylcarbamoyl)-3-fluorophenyl)-8-(1-isopropyl-1H-indazol-5-yl)-3-methyl-2-oxo-3,6-dihydroimidazo[4,5-d]pyrrolo[2,3-b]pyridin-1(2H)-yl)cyclopentyl)carbamate]	****** (selectivity of >12500-fold)	> 2.5	5 to 7.5	> 1	≤ 0.01
